{"source": "patent US20260000669A1", "about": "“TREATMENT REGIMEN FOR AUTOIMMUNE DISEASES AND INFLAMMATORY DISEASES” (Merck Patent GmbH, priority 2022, published 2026)", "key": {"[1]": {"settings": "relapsing MS patients; cited from earlier work"}, "SARS-CoV-2 [2]": {"system": "SARS-CoV-2", "settings": "MS patients, 2 to 4 weeks after second dose of mRNA COVID-19 vaccine; cited from earlier work"}, "SARS-CoV-2 [3]": {"system": "SARS-CoV-2", "assay_type": "in vivo, human"}, "SARS-CoV-2 [4]": {"system": "SARS-CoV-2", "from_the_text": "The clinical study NCT02975349 is a phase II, randomized, placebo-controlled trial to evaluate the safety and efficacy of evobrutinib (M2951) in subjects with relapsing multiple sclerosis (RMS). […] The study was composed of a screening period of 4 weeks, a double blinded treatment period of 48 weeks, with an optional open-label extension (OLE) period of 312 weeks, and a safety follow-up period of 4 weeks post-treatment.\nPatients were randomized 1:1:1:1: to receive placebo, oral evobrutinib 25 mg once-daily (QD), 75 mg QD, 75 mg twice-daily (BID), or open-label dimethyl fumarate. Patients who received placebo during the first 24 weeks of the DBP, were switched to evobrutinib 25 mg QD until the end of the double-blind period (i.e., 48 weeks). Patients participating in the OLE after the DBP received EVO 75 mg QD and then, after a mean of 49.8 weeks, switched to EVO 75 mg BID.\nFor the analysis of pre-vaccination, post-vaccination and post-booster vaccination S1/S2 IgG antibody levels, plasma samples were selected according to the following criteria: • Pre-vaccination: sample taken at the last doctor's visit of the patient before the date when the first COVID-19 vaccine dose was administered • post-vaccination: sample taken at the first doctor's visit of the patient that took place at least 28 days after a complete vaccination cycle (as defined by the manufacturer) was administered (for example, in case of the mRNA COVID vaccine of VAC-OLE I, at least 28 days after the date when the second dose of the mRNA COVID vaccine was administered) • post-booster vaccination: sample taken in the first doctor's visit of the patients that took place at least 7 days after the date when the booster vaccination was administered\nA total of 24 patients, fulfilling the following criteria, were included in the analysis and constituted the VAC-OLE I analysis set: • Subjects who were in the OLE and received evobrutinib 75 mg BID, and • had 2 doses of mRNA vaccine against COVID reported as concomitant medication, and • signed the Informed Consent for the vaccination analysis.\nSubjects were administered the two doses of vaccine during the course of the study based on investigator's judgement. Of the 24 vaccinated patients: • 20 received the mRNA vaccine by BioNTech/Pfizer • 4 patients received the mRNA vaccine by Moderna.\nSARS-CoV-2 antibody levels were determined using the LIAISON® SARS-CoV-2 S1/S2 IgG assay (DiaSorin, Inc); an indirect sandwich chemiluminescent immunoassay that qualitatively detects IgG antibodies to SARS-CoV-2. […] Briefly, magnetic particles coated with recombinant S1 and S2 SARS-CoV-2 proteins were incubated with patients' plasma samples, calibrator samples or control samples. After washing away unbound material, a mouse monoclonal anti-human IgG antibody linked to an isoluminol derivative was added. Following another incubation and wash step, the starter reagents were added triggering a flash chemiluminescence reaction. The resulting light signal, representative of the amount of bound isoluminol-antibody conjugate, was measured by a photo multiplier as relative light units (RLU) and was indicative of the presence of IgG S1/S2 antibodies to SARS-CoV-2 virus. Test results are assessed qualitatively as positive or negative. The lower limit of quantification (LLoQ) in this assay was 3.8 AU/mL. In line with FDA guidance, values below a cutoff of 15 AU/mL (i.e. about 4× above the LLoQ for the assay) were considered as a negative readout.\nThe primary endpoint of this study was defined as fold changes in levels of S1/S2 IgG antibodies from pre- to post-vaccination."}, "[5]": {"settings": "mouse model of SLE, orally administered; cited from earlier work"}, "[6]": {"settings": "mouse model of RA, orally administered; cited from earlier work"}, "[7]": {"settings": "all participants (N=45), VAC-OLE II, evobrutinib 75 mg BID"}, "[8]": {"settings": "booster subgroup (N=14), mRNA booster, VAC-OLE II"}, "[9]": {"settings": "participants that received mRNA vaccines (37), VAC-OLE II"}, "[10]": {"settings": "participants that received non-mRNA vaccines (8), VAC-OLE II"}, "[11]": {"settings": "seronegative subgroup (N=32), VAC-OLE II"}, "[12]": {"settings": "seropositive subgroup (N=13), VAC-OLE II"}, "[13]": {"settings": "overall VAC-OLE I population (N=24), evobrutinib 75 mg BID"}, "[14]": {"settings": "seronegative subgroup (19 patients), VAC-OLE I"}, "[15]": {"settings": "seropositive subgroup (5 patients), VAC-OLE I"}}, "note": "Like-named read-outs stand apart in the source and are kept apart here.", "data": [{"molecule": "C=CC(=O)N1CCC[C@@H](n2c(=O)n(-c3ccc(Oc4ccccc4)cc3)c3c(N)nccc32)C1", "note": "[tolebrutinib, reference compound]", "values": [{"measurement": "results in RMS phase II trials", "setting": "[1]", "result": "positive results"}]}, {"molecule": "ocrelizumab: B and/or T cell receptor directed antibody; a disease modifying treatment for multiple sclerosis", "values": [{"measurement": "S1/S2 IgG antibody levels", "setting": "SARS-CoV-2 [2]", "result": "very low"}]}, {"molecule": "C=CC(=O)N1CCC(CNc2ncnc(N)c2-c2ccc(Oc3ccccc3)cc2)CC1", "note": "[evobrutinib, 1-[4-({[6-amino-5-(4-phenoxyphenyl)pyrimidin-4-yl]amino}methyl)piperidin-1-yl]prop-2-en-1-one]", "values": [{"measurement": "participants with >30-fold induction of S1/S2 IgG antibody levels", "setting": "SARS-CoV-2 [3]; 21 of 45 participants, VAC-OLE II", "result": 47, "unit": "%"}, {"measurement": "participants with >10-fold increase of S1/S2 IgG antibody levels", "setting": "SARS-CoV-2 [3]; 38 of 45 participants, VAC-OLE II", "result": 84, "unit": "%"}, {"measurement": "S1/S2 IgG antibody geometric mean post-vaccination", "setting": "SARS-CoV-2 [3]; <8 weeks subgroup, VAC-OLE II", "result": 672, "unit": "AU/mL"}, {"measurement": "participants with >30-fold change in antibody levels after vaccination", "setting": "SARS-CoV-2 [3]; >8 and ≤12 weeks subgroup (7 of 19), VAC-OLE II", "result": 37, "unit": "%"}, {"measurement": "S1/S2 IgG antibody geometric mean post-vaccination", "setting": "SARS-CoV-2 [3]; >8 week to ≤12 weeks subgroup, VAC-OLE II", "result": 166, "unit": "AU/mL"}, {"measurement": "participants with >30-fold change in antibody levels after vaccination", "setting": "SARS-CoV-2 [3]; >12 weeks group (2/13), VAC-OLE II", "result": 15, "unit": "%"}, {"measurement": "S1/S2 IgG antibody geometric mean post-vaccination", "setting": "SARS-CoV-2 [3]; >12 weeks subgroup, VAC-OLE II", "result": 142, "unit": "AU/mL"}, {"measurement": "fold increase in anti-COVID-19 antibody levels pre- to post-vaccination", "setting": "SARS-CoV-2 [3]; all participants (N=45), VAC-OLE II", "result": 45, "unit": "fold"}, {"measurement": "S1/S2 IgG antibody level after a complete vaccination cycle, geometric mean", "setting": "SARS-CoV-2 [3]; [7]", "result": 237.8, "unit": "AU/mL"}, {"measurement": "S1/S2 IgG antibody level pre-vaccination, geometric mean", "setting": "SARS-CoV-2 [3]; [7]", "result": 9.0, "unit": "AU/mL"}, {"measurement": "fold change in the geometric mean of S1/S2 IgG antibody", "setting": "SARS-CoV-2 [3]; assessed >8 week to ≤12 weeks after complete vaccination cycle, VAC-OLE II", "result": 17.7}, {"measurement": "fold change in the geometric mean of S1/S2 IgG antibody", "setting": "SARS-CoV-2 [3]; assessed >12 weeks after complete vaccination cycle, VAC-OLE II", "result": 17.8}, {"measurement": "fold change in the geometric mean of S1/S2 IgG antibody", "setting": "SARS-CoV-2 [3]; assessed ≤8 weeks after complete vaccination cycle, VAC-OLE II", "result": 69.7}, {"measurement": "S1/S2 IgG antibody levels after booster vaccination compared to levels after the complete vaccination cycle", "setting": "SARS-CoV-2 [3]; booster subgroup (N=14), VAC-OLE II", "result": "Higher"}, {"measurement": "geometric mean fold change from post-vaccination to post-booster", "setting": "SARS-CoV-2 [3]; [8]", "result": 6.3}, {"measurement": "geometric mean fold change from pre-vaccination to post-booster", "setting": "SARS-CoV-2 [3]; [8]", "result": 214}, {"measurement": "response to COVID vaccination compared with individuals not under BTK inhibitor treatment", "setting": "SARS-CoV-2 [3]; conclusion of Example 2, comparison with published data", "result": "comparably to healthy individuals"}, {"measurement": "post-vaccination S1/S2 IgG antibody geometric mean", "setting": "SARS-CoV-2 [3]; [9]", "result": 247.7, "unit": "AU/mL"}, {"measurement": "pre-vaccination S1/S2 IgG antibody geometric mean", "setting": "SARS-CoV-2 [3]; [9]", "result": 8.5, "unit": "AU/mL"}, {"measurement": "post-vaccination S1/S2 IgG antibody geometric mean", "setting": "SARS-CoV-2 [3]; [10]", "result": 197.1, "unit": "AU/mL"}, {"measurement": "pre-vaccination S1/S2 IgG antibody geometric mean", "setting": "SARS-CoV-2 [3]; [10]", "result": 12.1, "unit": "AU/mL"}, {"measurement": "S1/S2 IgG antibody post-vaccination geometric mean level", "setting": "SARS-CoV-2 [3]; [11]", "result": 133.6, "unit": "AU/mL"}, {"measurement": "S1/S2 IgG antibody values prior to vaccination (majority of participants, lower limit of quantification)", "setting": "SARS-CoV-2 [3]; [11]", "result": 3.8, "unit": "AU/mL"}, {"measurement": "S1/S2 IgG antibody geometric mean level after a complete vaccination cycle", "setting": "SARS-CoV-2 [3]; [12]", "result": 984.4, "unit": "AU/mL"}, {"measurement": "S1/S2 IgG antibody pre-vaccination geometric mean level", "setting": "SARS-CoV-2 [3]; [12]", "result": 55.5, "unit": "AU/mL"}, {"measurement": "results in RMS phase II trials", "setting": "[1]", "result": "positive results"}, {"measurement": "S1/S2 IgG antibody level, geometric mean, after second vaccination", "setting": "SARS-CoV-2 [4]; [13]", "result": 209.1, "unit": "AU/mL"}, {"measurement": "S1/S2 IgG antibody level, geometric mean, before first vaccination", "setting": "SARS-CoV-2 [4]; [13]", "result": 6.7, "unit": "AU/mL"}, {"measurement": "S1/S2 IgG antibody level post-vaccination, geometric mean", "setting": "SARS-CoV-2 [4]; sample collected >12 weeks after second vaccination, VAC-OLE I", "result": 74}, {"measurement": "S1/S2 IgG antibody level post-vaccination, geometric mean", "setting": "SARS-CoV-2 [4]; sample collected between 8 and 12 weeks after second dose, VAC-OLE I", "result": 264}, {"measurement": "S1/S2 IgG antibody level post-vaccination, geometric mean", "setting": "SARS-CoV-2 [4]; sample collected less or equal to 8 weeks after second vaccination, VAC-OLE I", "result": 383, "unit": "AU/mL"}, {"measurement": "geometric mean fold change of S1/S2 IgG antibody levels", "setting": "SARS-CoV-2 [4]; seronegative patients, VAC-OLE I", "result": 36.0}, {"measurement": "S1/S2 IgG antibody level prior to vaccination (majority of patients, lower limit of quantification)", "setting": "SARS-CoV-2 [4]; [14]", "result": "around 3.8 AU/ml"}, {"measurement": "S1/S2 IgG antibody level, geometric mean post-vaccination", "setting": "SARS-CoV-2 [4]; [14]", "result": 155.8, "unit": "AU/mL"}, {"measurement": "geometric mean fold change of S1/S2 IgG antibody levels", "setting": "SARS-CoV-2 [4]; seropositive patients, VAC-OLE I", "result": 18.0}, {"measurement": "S1/S2 IgG antibody level, geometric mean after the second vaccination", "setting": "SARS-CoV-2 [4]; [15]", "result": 639.6, "unit": "AU/mL"}, {"measurement": "S1/S2 IgG antibody level, geometric mean pre-vaccination", "setting": "SARS-CoV-2 [4]; [15]", "result": 35.5, "unit": "AU/mL"}, {"measurement": "efficacy (reduction of disease severity and histological damage)", "setting": "[5]", "result": "good efficacy"}, {"measurement": "efficacy (reduction of disease severity and histological damage)", "setting": "[6]", "result": "good efficacy"}]}]}
